Reference: BindingDB's records for doi:10.1128/aac.01536-06 (Public Health Research Institute, 2007)

What was measured:
1,3-beta-glucan synthase [1] = molecular target: T1, 1,3-beta-glucan synthase (Candida albicans, UniProt O13423); experiment: Inhibition of glucan synthase in Candida albicans ATCC 36082 in presence of 50% human serum
1,3-beta-glucan synthase [2] = molecular target: T1, 1,3-beta-glucan synthase; experiment: Inhibition of glucan synthase in Candida albicans SC5314 in presence of 10% human serum
1,3-beta-glucan synthase [3] = molecular target: T1, 1,3-beta-glucan synthase; experiment: Inhibition of glucan synthase in Candida albicans ATCC 36082 in presence of 20% human serum
1,3-beta-glucan synthase [4] = molecular target: T1, 1,3-beta-glucan synthase; experiment: Inhibition of glucan synthase in Candida albicans 36082 assessed as incorporation of [3H]uridine diphosphoglucose
1,3-beta-glucan synthase [5] = molecular target: T1, 1,3-beta-glucan synthase; experiment: Inhibition of glucan synthase in Candida albicans 36082 assessed as incorporation of [3H]uridine diphosphoglucose in presence of 50% serum
1,3-beta-glucan synthase [6] = molecular target: T1, 1,3-beta-glucan synthase; experiment: Inhibition of glucan synthase in Candida albicans ATCC 90028 in presence of 50% human serum
1,3-beta-glucan synthase [7] = molecular target: T1, 1,3-beta-glucan synthase; experiment: Inhibition of glucan synthase in Candida albicans ATCC 36082 in presence of 10% human serum
1,3-beta-glucan synthase [8] = molecular target: T1, 1,3-beta-glucan synthase; experiment: Inhibition of glucan synthase in Candida albicans SC5314 in presence of 50% human serum
1,3-beta-glucan synthase [9] = molecular target: T1, 1,3-beta-glucan synthase; experiment: Inhibition of glucan synthase in Candida albicans SC5314 in presence of 20% human serum
1,3-beta-glucan synthase [10] = molecular target: T1, 1,3-beta-glucan synthase; experiment: Inhibition of glucan synthase in Candida albicans ATCC 90028 in presence of 20% human serum
1,3-beta-glucan synthase [11] = molecular target: T1, 1,3-beta-glucan synthase; experiment: Inhibition of glucan synthase in Candida albicans ATCC 36082

T1 sequence (O13423 whole entry): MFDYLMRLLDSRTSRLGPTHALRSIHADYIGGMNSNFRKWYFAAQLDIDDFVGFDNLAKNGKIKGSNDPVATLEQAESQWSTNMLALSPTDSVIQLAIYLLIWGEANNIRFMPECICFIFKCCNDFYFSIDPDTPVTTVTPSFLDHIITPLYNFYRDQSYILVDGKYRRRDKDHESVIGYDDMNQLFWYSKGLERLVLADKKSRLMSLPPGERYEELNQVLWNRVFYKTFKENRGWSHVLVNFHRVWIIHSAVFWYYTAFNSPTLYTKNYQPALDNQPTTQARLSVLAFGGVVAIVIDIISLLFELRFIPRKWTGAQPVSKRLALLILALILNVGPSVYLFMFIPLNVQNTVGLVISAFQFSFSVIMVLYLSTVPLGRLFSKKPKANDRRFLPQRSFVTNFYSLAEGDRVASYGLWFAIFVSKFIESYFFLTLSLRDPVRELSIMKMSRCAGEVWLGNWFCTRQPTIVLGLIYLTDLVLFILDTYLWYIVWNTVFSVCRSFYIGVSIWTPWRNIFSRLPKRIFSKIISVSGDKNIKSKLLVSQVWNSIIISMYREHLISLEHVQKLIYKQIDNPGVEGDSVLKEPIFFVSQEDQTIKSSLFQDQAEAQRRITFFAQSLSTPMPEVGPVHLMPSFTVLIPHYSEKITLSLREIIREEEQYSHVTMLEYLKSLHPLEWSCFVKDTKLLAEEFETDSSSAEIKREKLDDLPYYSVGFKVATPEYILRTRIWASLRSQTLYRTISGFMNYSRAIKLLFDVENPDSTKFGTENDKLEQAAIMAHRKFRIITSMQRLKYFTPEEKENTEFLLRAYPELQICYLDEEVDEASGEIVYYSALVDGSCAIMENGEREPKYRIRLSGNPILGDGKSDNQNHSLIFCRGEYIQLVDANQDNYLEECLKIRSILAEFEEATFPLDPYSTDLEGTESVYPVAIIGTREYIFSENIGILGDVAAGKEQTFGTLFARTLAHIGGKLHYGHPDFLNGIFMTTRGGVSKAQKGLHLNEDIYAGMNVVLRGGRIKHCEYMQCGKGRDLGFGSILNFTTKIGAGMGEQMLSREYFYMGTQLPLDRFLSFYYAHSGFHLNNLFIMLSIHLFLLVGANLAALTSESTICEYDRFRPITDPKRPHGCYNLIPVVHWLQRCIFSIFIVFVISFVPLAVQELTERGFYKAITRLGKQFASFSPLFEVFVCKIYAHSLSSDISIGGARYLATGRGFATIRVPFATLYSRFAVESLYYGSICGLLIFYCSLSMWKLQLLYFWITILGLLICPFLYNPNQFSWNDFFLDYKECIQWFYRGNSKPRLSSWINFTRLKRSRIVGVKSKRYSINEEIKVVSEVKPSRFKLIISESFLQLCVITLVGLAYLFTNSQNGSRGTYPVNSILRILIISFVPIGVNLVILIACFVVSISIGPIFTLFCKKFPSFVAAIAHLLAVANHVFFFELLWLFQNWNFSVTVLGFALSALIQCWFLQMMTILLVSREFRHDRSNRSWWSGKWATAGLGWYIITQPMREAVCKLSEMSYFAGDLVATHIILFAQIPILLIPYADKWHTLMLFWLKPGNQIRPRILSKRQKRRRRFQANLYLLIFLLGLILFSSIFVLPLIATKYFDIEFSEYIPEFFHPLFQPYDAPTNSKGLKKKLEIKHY

Question: For `CCC(C)CC(C)CCCCCCCCC(=O)N[C@H]1C[C@@H](O)[C@@H](NCCN)NC(=O)[C@@H]2[C@@H](O)CCN2C(=O)[C@H]([C@H](O)CCN)NC(=O)[C@H]([C@H](O)[C@@H](O)c2ccc(O)cc2)NC(=O)[C@@H]2C[C@@H](O)CN2C(=O)[C@H]([C@@H](C)O)NC1=O` (stereo partly specified) [CHEBI:474180], which IC50 (1,3-beta-glucan synthase [1]) is on record?
Answer: The IC50 was 8.7 nM.

Question: What about the IC50 (1,3-beta-glucan synthase [2]) of the same molecule?
Answer: Its IC50 is 27 nM.

Question: What about the IC50 (1,3-beta-glucan synthase [3]) of the same molecule?
Answer: The IC50 was 5.3 nM.

Question: What about the IC50 (1,3-beta-glucan synthase [4]) of the same molecule?
Answer: The IC50 was 0.33 nM.

Question: What about the IC50 (1,3-beta-glucan synthase [5]) of the same molecule?
Answer: Its IC50 is 6.2 nM.

Question: And the IC50 (1,3-beta-glucan synthase [6])?
Answer: Its IC50 is 6.3 nM.

Question: What about the IC50 (1,3-beta-glucan synthase [7]) of the same molecule?
Answer: The IC50 was 2.8 nM.

Question: And the IC50 (1,3-beta-glucan synthase [8])?
Answer: Its IC50 is 81 nM.

Question: What about the IC50 (1,3-beta-glucan synthase [9]) of the same molecule?
Answer: Its IC50 is 37 nM.

Question: And the IC50 (1,3-beta-glucan synthase [10])?
Answer: Its IC50 is 2.1 nM.

Question: What about the IC50 (1,3-beta-glucan synthase [11]) of the same molecule?
Answer: Its IC50 is 0.9 nM.
